Assay [1] relates to HCC1954. Kind of assay: Cytotoxicity against human HCC1954 cells at 5 uM by MTT assay. The assay is classed as functional.
The test system of assay [2] is MDA-MB-231. The assay can be described thus: Cytotoxicity against human MDA-MB-231 cells at 5 uM by MTT assay. Type of assay: functional. Background: Formazan colour is commonly taken as a measure of viable cells.
Assay [3] relates to T47D. Kind of assay: Cytotoxicity against human T47D cells at 10 uM by MTT assay. Type of assay: functional.
Assay [4] deals with MCF7. Kind of assay: Cytotoxicity against human MCF7 cells at 5 uM by MTT assay. Type of assay: functional.
The test system of assay [5] is MCF7. The assay can be described thus: Cytotoxicity against human MCF7 cells at 10 uM by MTT assay. The assay is classed as functional.
Assay [6] relates to MDA-MB-231. The assay can be described thus: Cytotoxicity against human MDA-MB-231 cells at 10 uM by MTT assay. The assay is classed as functional.
Assay [7] deals with T47D. Kind of assay: Cytotoxicity against human T47D cells at 5 uM by MTT assay. The assay is classed as functional.
For assay [8], the system named is HCC1954. The assay can be described thus: Cytotoxicity against human HCC1954 cells at 10 uM by MTT assay. Type of assay: functional.
The species entered for a further assay is Sus scrofa. Kind of assay: Inhibition of pig CK1delta/epsilon.
Assay [9] concerns the target Mast/stem cell growth factor receptor Kit (Homo sapiens) (UniProt P10721). The assay can be described thus: Inhibition of recombinant human GST-tagged KIT (544-end residues) transphosphorylation activity expressed in baculovirus infected Sf9 cells using poly[Glu:Tyr] (4:1) as substrate after 60 mins.
Assay [10] concerns the target Cyclin-dependent kinase 5/CDK5 activator 1 (Homo sapiens) (UniProt Q00535+Q15078). The assay can be described thus: Inhibition of human CDK5/p25 using histone H1 as substrate in presence of [gamma33P]ATP after 30 mins by scintillation counting method. Type of assay: protein-complex assay.
Assay [11] has as its target Phosphatidylinositol 4,5-bisphosphate 3-kinase catalytic subunit alpha isoform (Homo sapiens, UniProt P42336). The assay can be described thus: Inhibition of PI3Kalpha catalytic domain (unknown origin) using PIP2 liposomes as substrate in presence of biotin-labeled PIP3 and GST-GRP1-PH by streptavidin-HRP based assays.
Assay [12] addresses Dual specificity protein kinase CLK1 (Mus musculus) (UniProt P22518). Kind of assay: Inhibition of mouse CLK1.
In assay [13] the test system is MCF7. Kind of assay: Cytotoxicity against human MCF7 cells by MTT assay. Type of assay: functional, cell-based.
In another assay the test system is SK-BR-3. The assay can be described thus: Cytotoxicity against human SKBR3 cells by MTT assay. The assay is classed as functional, cell-based.
Assay [14] deals with T47D. Kind of assay: Cytotoxicity against human T47D cells by MTT assay. Type of assay: functional, cell-based.
Assay [15] has as its target Platelet-derived growth factor receptor beta (Homo sapiens) (UniProt P09619). The assay can be described thus: Inhibition of recombinant human GST-tagged PDGFR-beta (557-end residues) transphosphorylation activity expressed in baculovirus infected Sf9 cells using poly[Glu:Tyr] (4:1) as substrate after 60 mins.
For assay [16], the target named is Glycogen synthase kinase-3 (Sus scrofa) (UniProt B2LUN4+I6LNT8). The assay can be described thus: Inhibition of pig GSK3alpha/beta using GS-1 as substrate in presence of [gamma33P]ATP after 30 mins by scintillation counting method.
The subject of assay [17] is HCC1954. Kind of assay: Cytotoxicity against human HCC1954 cells by MTT assay. Type of assay: functional, cell-based.
Assay [18] concerns the target Aurora kinase B/Inner centromere protein (Homo sapiens) (UniProt Q96GD4+Q9NQS7). Kind of assay: Inhibition of human AURKB/INCENP. Type of assay: protein-complex assay.
In assay [19] the target is Receptor-type tyrosine-protein kinase FLT3 (Homo sapiens) (UniProt P36888). Kind of assay: Inhibition of recombinant human GST-tagged FLT3 (571 to 993 residues) transphosphorylation activity expressed in baculovirus infected Sf9 cells using poly[Glu:Tyr] (4:1) as substrate after 60 mins.
Assay [20] concerns the target T1, Serine/threonine-protein kinase haspin (Homo sapiens) (UniProt Q8TF76).
T1 sequence (whole entry): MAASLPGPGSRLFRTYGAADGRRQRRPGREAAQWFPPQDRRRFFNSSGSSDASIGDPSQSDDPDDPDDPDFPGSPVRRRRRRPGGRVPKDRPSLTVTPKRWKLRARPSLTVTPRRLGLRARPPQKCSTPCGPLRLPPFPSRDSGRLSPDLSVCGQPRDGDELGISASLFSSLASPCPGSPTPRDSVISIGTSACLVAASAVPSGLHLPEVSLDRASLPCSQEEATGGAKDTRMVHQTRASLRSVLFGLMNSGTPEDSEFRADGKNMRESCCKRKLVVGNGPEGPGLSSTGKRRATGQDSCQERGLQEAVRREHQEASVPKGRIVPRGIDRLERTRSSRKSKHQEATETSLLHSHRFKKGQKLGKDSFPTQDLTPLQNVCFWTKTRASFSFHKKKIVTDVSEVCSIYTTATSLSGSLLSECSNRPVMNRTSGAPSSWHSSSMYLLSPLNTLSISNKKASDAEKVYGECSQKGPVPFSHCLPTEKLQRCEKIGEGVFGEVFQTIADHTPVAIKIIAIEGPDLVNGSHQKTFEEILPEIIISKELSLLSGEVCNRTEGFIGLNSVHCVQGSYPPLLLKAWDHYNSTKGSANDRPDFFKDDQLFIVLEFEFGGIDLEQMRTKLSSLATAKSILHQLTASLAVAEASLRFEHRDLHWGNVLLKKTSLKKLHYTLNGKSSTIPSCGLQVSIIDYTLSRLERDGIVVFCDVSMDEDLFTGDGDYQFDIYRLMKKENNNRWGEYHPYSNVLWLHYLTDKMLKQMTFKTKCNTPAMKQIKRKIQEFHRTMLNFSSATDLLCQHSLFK
Kind of assay: Inhibition of human HASPIN.

Assay [21] has as its target Dual specificity tyrosine-phosphorylation-regulated kinase 1A (Rattus norvegicus) (UniProt Q63470). The assay can be described thus: Inhibition of rat DYRK1A using myelin basic protein as substrate in presence of [gamma33P]ATP after 30 mins by scintillation counting method.
The test system of assay [22] is MDA-MB-231. The assay can be described thus: Cytotoxicity against human MDA-MB-231 cells by MTT assay. The assay is classed as functional, cell-based.
Assay [23] concerns the target Vascular endothelial growth factor receptor 2 (Homo sapiens) (UniProt P35968). The assay can be described thus: Inhibition of recombinant human GST-tagged VEGFR-2 (789-end residues) transphosphorylation activity expressed in baculovirus infected Sf9 cells using poly[Glu:Tyr] (4:1) as substrate after 60 mins.
The target of assay [24] is Receptor-interacting serine/threonine-protein kinase 3 (Homo sapiens) (UniProt Q9Y572). The assay can be described thus: Inhibition of human RIPK3.

SMILES strings stand for the structures. The source made the active and inactive calls. The rule behind the calls is not given here. Bounds are passed on as bounds.

Sequence of Mast/stem cell growth factor receptor Kit (Homo sapiens) (P10721 whole entry): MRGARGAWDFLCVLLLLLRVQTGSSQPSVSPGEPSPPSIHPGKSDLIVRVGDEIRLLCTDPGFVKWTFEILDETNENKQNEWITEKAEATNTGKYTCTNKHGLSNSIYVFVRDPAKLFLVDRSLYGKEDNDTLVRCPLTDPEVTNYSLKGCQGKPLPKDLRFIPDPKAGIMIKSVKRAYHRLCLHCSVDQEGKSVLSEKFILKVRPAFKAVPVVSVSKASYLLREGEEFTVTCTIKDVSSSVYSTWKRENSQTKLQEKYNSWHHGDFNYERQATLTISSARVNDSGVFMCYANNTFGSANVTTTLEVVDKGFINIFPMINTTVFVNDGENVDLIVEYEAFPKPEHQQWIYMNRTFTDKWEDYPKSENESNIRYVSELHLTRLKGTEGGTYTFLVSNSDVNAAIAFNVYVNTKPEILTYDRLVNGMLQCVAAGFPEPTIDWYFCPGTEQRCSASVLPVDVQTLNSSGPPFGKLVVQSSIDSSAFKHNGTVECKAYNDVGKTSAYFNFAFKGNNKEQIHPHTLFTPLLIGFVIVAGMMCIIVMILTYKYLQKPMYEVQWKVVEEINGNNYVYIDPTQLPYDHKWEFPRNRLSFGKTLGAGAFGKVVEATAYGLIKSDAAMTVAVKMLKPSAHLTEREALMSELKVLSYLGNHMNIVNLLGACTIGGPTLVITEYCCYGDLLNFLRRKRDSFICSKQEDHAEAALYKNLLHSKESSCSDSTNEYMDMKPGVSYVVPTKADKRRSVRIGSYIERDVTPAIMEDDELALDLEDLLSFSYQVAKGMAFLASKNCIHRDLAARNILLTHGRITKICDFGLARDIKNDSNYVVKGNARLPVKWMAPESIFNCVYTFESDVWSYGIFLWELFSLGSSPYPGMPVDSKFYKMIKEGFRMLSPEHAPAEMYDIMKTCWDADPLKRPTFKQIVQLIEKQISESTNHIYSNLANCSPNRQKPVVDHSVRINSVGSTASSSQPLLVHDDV
Sequence of Platelet-derived growth factor receptor beta (Homo sapiens) (P09619 whole entry): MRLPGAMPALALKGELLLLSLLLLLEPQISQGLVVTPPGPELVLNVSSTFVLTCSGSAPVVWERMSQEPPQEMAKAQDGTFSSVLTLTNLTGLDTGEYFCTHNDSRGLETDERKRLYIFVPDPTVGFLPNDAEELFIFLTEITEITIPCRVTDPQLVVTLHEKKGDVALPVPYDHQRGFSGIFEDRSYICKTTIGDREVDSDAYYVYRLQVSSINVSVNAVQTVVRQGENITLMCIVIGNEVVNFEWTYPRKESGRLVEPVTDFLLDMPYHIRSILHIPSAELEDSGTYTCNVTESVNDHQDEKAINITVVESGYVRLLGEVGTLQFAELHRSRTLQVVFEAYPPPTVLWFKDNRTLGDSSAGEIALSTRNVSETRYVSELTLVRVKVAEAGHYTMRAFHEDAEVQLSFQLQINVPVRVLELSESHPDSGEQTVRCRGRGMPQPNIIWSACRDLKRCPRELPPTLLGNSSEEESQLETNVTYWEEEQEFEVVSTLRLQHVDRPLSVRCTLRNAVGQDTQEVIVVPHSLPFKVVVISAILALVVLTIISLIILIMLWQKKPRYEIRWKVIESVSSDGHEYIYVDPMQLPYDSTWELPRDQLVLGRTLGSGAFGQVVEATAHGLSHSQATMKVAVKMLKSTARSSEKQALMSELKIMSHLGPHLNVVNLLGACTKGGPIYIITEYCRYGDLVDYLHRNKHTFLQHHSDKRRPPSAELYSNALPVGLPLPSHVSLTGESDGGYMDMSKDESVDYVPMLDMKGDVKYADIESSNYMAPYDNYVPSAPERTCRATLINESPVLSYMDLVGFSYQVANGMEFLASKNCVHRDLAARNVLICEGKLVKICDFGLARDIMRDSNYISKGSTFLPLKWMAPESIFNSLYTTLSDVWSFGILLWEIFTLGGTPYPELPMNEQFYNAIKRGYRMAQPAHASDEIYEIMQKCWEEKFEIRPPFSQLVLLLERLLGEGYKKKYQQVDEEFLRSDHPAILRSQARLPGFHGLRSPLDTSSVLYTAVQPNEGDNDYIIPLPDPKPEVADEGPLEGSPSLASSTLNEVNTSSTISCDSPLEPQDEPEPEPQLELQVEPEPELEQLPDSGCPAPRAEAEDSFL
Sequence of Receptor-interacting serine/threonine-protein kinase 3 (Homo sapiens) (Q9Y572 whole entry, looked up): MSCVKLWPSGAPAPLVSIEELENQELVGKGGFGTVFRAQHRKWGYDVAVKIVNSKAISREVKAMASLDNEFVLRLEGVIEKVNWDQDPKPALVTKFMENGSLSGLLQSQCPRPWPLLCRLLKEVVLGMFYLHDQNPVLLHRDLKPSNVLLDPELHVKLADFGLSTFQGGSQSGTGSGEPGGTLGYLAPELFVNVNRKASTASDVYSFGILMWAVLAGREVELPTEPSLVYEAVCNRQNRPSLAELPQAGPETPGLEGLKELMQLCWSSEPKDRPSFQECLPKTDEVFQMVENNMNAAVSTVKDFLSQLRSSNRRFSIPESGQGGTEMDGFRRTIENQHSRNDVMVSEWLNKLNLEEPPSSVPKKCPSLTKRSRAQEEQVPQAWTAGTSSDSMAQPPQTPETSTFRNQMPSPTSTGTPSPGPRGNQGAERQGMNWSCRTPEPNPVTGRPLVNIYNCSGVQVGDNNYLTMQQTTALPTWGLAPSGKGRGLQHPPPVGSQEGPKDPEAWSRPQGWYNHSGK
Sequence of Receptor-type tyrosine-protein kinase FLT3 (Homo sapiens) (P36888 whole entry, the tested form may be a part): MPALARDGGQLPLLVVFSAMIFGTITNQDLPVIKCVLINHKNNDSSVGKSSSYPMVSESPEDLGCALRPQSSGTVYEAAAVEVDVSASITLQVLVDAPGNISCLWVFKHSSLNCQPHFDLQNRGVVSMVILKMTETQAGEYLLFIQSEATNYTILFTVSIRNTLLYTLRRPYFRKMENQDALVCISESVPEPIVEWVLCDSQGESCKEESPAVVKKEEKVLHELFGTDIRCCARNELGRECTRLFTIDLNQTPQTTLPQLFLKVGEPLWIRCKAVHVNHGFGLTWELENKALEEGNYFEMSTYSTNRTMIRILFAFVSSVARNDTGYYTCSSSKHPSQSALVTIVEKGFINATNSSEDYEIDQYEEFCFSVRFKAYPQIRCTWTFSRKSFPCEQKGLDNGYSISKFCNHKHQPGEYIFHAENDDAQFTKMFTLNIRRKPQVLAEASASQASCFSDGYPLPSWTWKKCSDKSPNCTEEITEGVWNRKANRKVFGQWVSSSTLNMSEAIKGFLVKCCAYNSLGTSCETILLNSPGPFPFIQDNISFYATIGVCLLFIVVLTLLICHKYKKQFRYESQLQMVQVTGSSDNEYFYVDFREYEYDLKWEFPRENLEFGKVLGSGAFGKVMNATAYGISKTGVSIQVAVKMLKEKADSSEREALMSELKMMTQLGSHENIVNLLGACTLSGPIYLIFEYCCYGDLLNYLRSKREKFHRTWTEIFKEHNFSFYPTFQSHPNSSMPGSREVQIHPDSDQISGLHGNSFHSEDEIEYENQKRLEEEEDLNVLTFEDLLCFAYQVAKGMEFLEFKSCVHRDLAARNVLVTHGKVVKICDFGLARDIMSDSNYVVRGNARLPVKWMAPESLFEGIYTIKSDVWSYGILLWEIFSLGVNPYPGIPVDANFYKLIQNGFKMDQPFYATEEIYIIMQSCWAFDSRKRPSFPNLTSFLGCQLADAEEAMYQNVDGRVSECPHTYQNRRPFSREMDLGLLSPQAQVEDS
Sequence of Phosphatidylinositol 4,5-bisphosphate 3-kinase catalytic subunit alpha isoform (P42336 whole entry, the tested form may be a part, canonical isoform): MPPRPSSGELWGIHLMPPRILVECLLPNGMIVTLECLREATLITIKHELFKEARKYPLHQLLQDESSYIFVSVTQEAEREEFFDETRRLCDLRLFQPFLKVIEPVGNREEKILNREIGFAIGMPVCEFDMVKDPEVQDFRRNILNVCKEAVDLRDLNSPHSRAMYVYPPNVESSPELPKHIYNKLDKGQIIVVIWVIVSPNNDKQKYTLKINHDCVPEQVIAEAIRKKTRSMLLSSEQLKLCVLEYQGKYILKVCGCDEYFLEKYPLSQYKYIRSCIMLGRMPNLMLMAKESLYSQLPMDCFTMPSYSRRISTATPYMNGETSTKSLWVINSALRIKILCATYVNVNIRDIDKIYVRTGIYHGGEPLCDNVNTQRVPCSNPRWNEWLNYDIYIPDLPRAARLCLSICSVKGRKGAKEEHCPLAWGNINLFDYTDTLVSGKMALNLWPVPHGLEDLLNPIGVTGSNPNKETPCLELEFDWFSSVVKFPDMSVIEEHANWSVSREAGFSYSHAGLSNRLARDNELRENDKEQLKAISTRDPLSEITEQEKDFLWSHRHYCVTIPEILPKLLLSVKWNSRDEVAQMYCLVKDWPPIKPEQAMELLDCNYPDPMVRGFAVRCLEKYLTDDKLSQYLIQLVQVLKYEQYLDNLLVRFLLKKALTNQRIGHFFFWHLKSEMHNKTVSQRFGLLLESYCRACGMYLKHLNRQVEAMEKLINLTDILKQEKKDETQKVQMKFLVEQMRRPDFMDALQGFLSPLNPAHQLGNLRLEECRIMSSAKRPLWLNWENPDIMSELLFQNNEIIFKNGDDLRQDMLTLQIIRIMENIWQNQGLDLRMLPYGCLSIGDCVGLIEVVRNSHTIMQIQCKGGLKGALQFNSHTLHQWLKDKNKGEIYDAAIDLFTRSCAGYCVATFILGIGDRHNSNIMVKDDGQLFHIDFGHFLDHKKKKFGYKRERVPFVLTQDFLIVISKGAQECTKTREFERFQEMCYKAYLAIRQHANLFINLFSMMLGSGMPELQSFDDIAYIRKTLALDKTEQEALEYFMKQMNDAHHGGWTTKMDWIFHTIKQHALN

For the molecule `Cc1nc2nc(Sc3ccccc3)cnc2cc1NC(=O)CN1CCN(C)CC1`, the Activity in the assay with HCC1954 [1], with MDA-MB-231 [2], with T47D [3], in the assay with MCF7 [4], in the assay on MCF7 [5] and in the assay on MDA-MB-231 [6] was less than 50% each time. The Activity in the assay on T47D [7] and in the assay with HCC1954 [8] was less than 50% in each case.

For `CSc1ccc(NC(=O)Nc2cc3ncc(Sc4ccccc4)nc3nc2C)cc1`, the Activity with HCC1954 [1], in the assay on MDA-MB-231 [2], in the assay with T47D [3], in the assay on MCF7 [4], in the assay with MCF7 [5] and in the assay with MDA-MB-231 [6] was less than 50% each time. Moreover, the Activity with T47D [7] and in the assay with HCC1954 [8] was less than 50% each time.

Regarding `Cc1nc2nccnc2cc1NC(=O)c1cccc(C(F)(F)F)c1`, the Activity in the assay on HCC1954 [1], in the assay on MDA-MB-231 [2], in the assay with T47D [3], with MCF7 [4], in the assay on MCF7 [5] and with MDA-MB-231 [6] was less than 50% each time. In addition, the Activity in the assay with T47D [7] and in the assay with HCC1954 [8] was less than 50% throughout.

Take `Cc1nc2nc(Sc3ccccc3)cnc2cc1NC(=O)CN(C)C`: the Activity in the assay on HCC1954 [1], with MDA-MB-231 [2], with T47D [3], with MCF7 [4], in the assay on MCF7 [5] and with MDA-MB-231 [6] was less than 50% in each case. For the same molecule, the Activity with T47D [7] and in the assay with HCC1954 [8] was less than 50% in each case.

On to `COc1cc(C(=O)Nc2cc3ncc(Sc4ccccc4)nc3nc2C)cc(OC)c1OC`, for which the Activity with HCC1954 [1], in the assay on MDA-MB-231 [2], in the assay with T47D [3], in the assay with MCF7 [4], with MCF7 [5] and in the assay with MDA-MB-231 [6] was less than 50% throughout. For the same molecule, the Activity with T47D [7] and with HCC1954 [8] was less than 50% in each case.

As to `COc1cc(C(=O)Nc2cc3nccnc3nc2C)cc(OC)c1OC`, the Activity in the assay with HCC1954 [1], in the assay with MDA-MB-231 [2], with T47D [3], in the assay with MCF7 [4], in the assay on MCF7 [5] and with MDA-MB-231 [6] was less than 50% in each case. The Activity with T47D [7] and in the assay with HCC1954 [8] was less than 50% throughout.

Consider `Cc1nc2nc(Sc3ccccc3)cnc2cc1NC(=O)c1ccccc1C(F)(F)F`, for which the Activity in the assay with HCC1954 [1], in the assay with MDA-MB-231 [2], in the assay on T47D [3], with MCF7 [4], in the assay with MCF7 [5] and in the assay on MDA-MB-231 [6] was less than 50% in each case. Also, the Activity in the assay with T47D [7] and in the assay on HCC1954 [8] was less than 50% in each case.

`Cc1nc2nc(Sc3ccccc3)cnc2cc1NC(=O)c1cccc(C(F)(F)F)c1`: the Activity in the assay with HCC1954 [1], with MDA-MB-231 [2], in the assay with T47D [3], in the assay with MCF7 [4], with MCF7 [5] and with MDA-MB-231 [6] was less than 50% in each case. The Activity with T47D [7] and with HCC1954 [8] was less than 50% in each case.

Broadly, the IC50 is the concentration that gives 50% inhibition. `Cc1nc2nc(Oc3ccccc3)cnc2cc1NC(=O)Nc1ccccc1`: the Activity in the assay on HCC1954 [1], in the assay on MDA-MB-231 [2], in the assay on T47D [3], in the assay with MCF7 [4], with MCF7 [5] and with MDA-MB-231 [6] was more than 50% each time. Further, the Activity with T47D [7] and with HCC1954 [8] was more than 50% in each case. The inhibition result (in the assay filed under Sus scrofa; in assay [9]; in [10]; in assay [11]; in assay [12]; in assay [15]) was “inactive” in each case. For the same molecule, the inhibition entry in [16], in assay [18], in assay [19], in assay [20], in [21] and in [23] was “inactive” throughout. Besides, in [24], the inhibition result was “inactive”. In addition, the IC50 stood at 7 µM in the assay with MCF7 [13]; 7.2 µM in the assay with SK-BR-3; 9.4 µM in the assay with T47D [14]; 5.3 µM with HCC1954 [17]; 5.1 µM in the assay with MDA-MB-231 [22].

Regarding `Cc1nc2nc(Sc3ccccc3)cnc2cc1NC(=O)Nc1ccc(F)c([N+](=O)[O-])c1`, the Activity with HCC1954 [1], in the assay on MDA-MB-231 [2], with T47D [3], in the assay with MCF7 [4], in the assay with MCF7 [5] and with MDA-MB-231 [6] was less than 50% in each case. Further, the Activity in the assay with T47D [7] and with HCC1954 [8] was less than 50% each time.

The values are drawn from ChEMBL document CHEMBL4000195, “Design and synthesis of novel 7-aminosubstituted pyrido[2,3-b]pyrazines exhibiting anti-breast cancer activity” (Eur J Med Chem, 2017).
